Data set [1] has as its system Etf-1-GFP. Kind of data set: mitochondrial localization of ectopically expressed Etf-1-GFP in RF/6A cells. The data set is classed as cell-based, Ehrlichia chaffeensis. The settings on record: 10 μM, 2 days. As for the experimental part:
For mitochondria localization analysis, RF/6A cells were seeded onto a cover glass in a 12-well plate for 3 h, then infected with E. chaffeensis at ∼30 MOI. Alternatively, cells were transfected with Etf-1-GFP or Etf-1-DsRed plasmids using Fugene HD (Promega) or by electroporation at 100 V and 1,000 µF using the Gene Pulser Xcell System (BioRad) according to the manufacturers’ instructions ([16]). […] To examine the roles of macrocyclic peptides on Etf-1 localization on E. chaffeensis inclusions, infected RF/6A cells were treated with 10 μM peptides at 3 h pi for 2 days. At 2 days pi or pt, cells were washed 3 times with PBS, then fixed in 4% PFA for 20 min. Native Etf-1 and mitochondria marker cytochrome C proteins were labeled with rabbit anti-Etf-1 IgG and mouse anti-cytochrome C, then with AF488-conjugated goat anti-rabbit and anti-mouse secondary antibodies in PGS (PBS with 0.1% gelatin and 0.1% saponin) for 1 h each at RT. Host-cell and Ehrlichial DNAs were stained with 300 nM DAPI, and fluorescence with differential interference contrast images were observed and captured with a DeltaVision deconvolution microscope (Applied Precision, Issaquah, WA, USA). Percentages of Etf-1 protein colocalization with macrocyclic peptides or E. chaffeensis inclusions were quantified by counting 10–20 cells per group from three independent experiments.

The test system of data set [2] is BECN1 binding to Etf-1. Kind of data set: streptavidin magnetic beads pull-down of BECN1 with biotin-Etf-1, Western blot. The data set is classed as biochemical. The settings on record: 10 µM peptide. On the technique in general: Immunoblotting shows a protein as a band on a membrane.
Data set [3] deals with E. chaffeensis. Kind of data set: E. chaffeensis infection of THP-1 cells, qPCR of 16S rRNA gene normalized to human actin. The data set is classed as cell-based, Ehrlichia chaffeensis. For orientation: Quantitative PCR measures a nucleic acid by following its amplification.
Data set [4] relates to E. chaffeensis. Kind of data set: E. chaffeensis infection of RF/6A cells (numbers and sizes of morulae). Format: cell-based, Ehrlichia chaffeensis. The settings on record: 10 μM, 2 days.
For data set [5], the system named is E. chaffeensis. Kind of data set: morphological examination of E. chaffeensis infection of THP-1 cells by Diff-Quik staining.

SMILES strings stand for the structures. Entries after “also recorded” stand apart in the source; their conditions may differ. Starred links: 1 amine or outer side, 2 acyl side, 3 side chain; linkers in the order of their positions; H or OH if unused. Positions of bridges follow the written chain, without caps; N, C: chain ends. Non-standard residues stand in square brackets, D forms with d. Residues, ends and D or L forms follow the SMILES beside them. Trimesoyl = O=C(c1cc(C(=O)[*:2])cc(C(=O)[*:3])c1)[*:1]; d2Nal = N[C@H](Cc1ccc2ccccc2c1)C(=O)O; Dap = NC[C@H](N)C(=O)O

On to `CC(C)C[C@H]1NC(=O)[C@H](CO)NC(=O)[C@H]2CCCN2C(=O)[C@H](CCC(N)=O)NC(=O)[C@H](Cc2c[nH]cn2)NC(=O)[C@H](Cc2ccc(O)cc2)NC(=O)c2cc3cc(c2)C(=O)NC[C@H](NC1=O)C(=O)N[C@@H](Cc1ccccc1)C(=O)N[C@H](Cc1ccc2ccccc2c1)C(=O)N[C@H](CCCNC(=N)N)C(=O)N[C@@H](CCCNC(=N)N)C(=O)N[C@H](CCCNC(=N)N)C(=O)N[C@@H](CCCNC(=N)N)C(=O)N[C@H](C(N)=O)CNC3=O` [Peptide B7, TMA-Tyr-His-Gln-pro-Ser-leu-Dap-Phe-nal-arg-Arg-arg-Arg-Dap] (YHQ[dP]S[dL][Dap]F[d2Nal][dR]R[dR]R[Dap]-NH2; linker N-7-14 via Trimesoyl), for which the “effect on mitochondrial localization of Etf-1-GFP” value in data set [1] is listed as “neither peptide B7 nor C17 affected mitochondrial localization”. Also, the “disruption of BECN1 binding to Etf-1” value in data set [2] (compared to DMSO control) is recorded as “disrupted BECN1 binding to Etf-1”. The “BECN1/Etf-1 Ratio” value in data set [2] (band intensities, DMSO control set as 1, Fig. 8B) worked out at 0.20. Besides, the “inhibition of E. chaffeensis infection” value is given as “significantly inhibited” in data set [3] (10 μM, 2 days, vs DMSO control) and “significantly inhibited” in data set [4]. Besides, the “dose dependence of inhibition of E. chaffeensis infection” value in data set [3] (1, 5, and 10 μM) is on record as “dose-dependent manner”. In addition, the “E. chaffeensis infection (numbers and sizes of morulae)” value in data set [5] (THP-1 cells, Fig. S4 (with Figs. 5, S3)) is given as “significantly inhibited; also recorded: potent inhibition”. In addition, in data set [5] (THP-1 host cells), the “cytotoxicity (cell lysis in treated groups)” value is “least cytotoxicity”.

The record behind these values is article PMC9982066, “Inhibition of Ehrlichia chaffeensis infection by cell-permeable macrocyclic peptides that bind type IV secretion effector Etf-1” (PNAS Nexus, 2023).
